Experimental data published in ChEMBL document CHEMBL1139688, “3,4,5-Trisubstituted isoxazoles as novel PPARdelta agonists. Part 2” (Bioorg Med Chem Lett, 2006).
Active and inactive are the calls of the source. No cut-off for these calls is given here.

Tests used:
Liver microsomes [1] = assay: Stability in rat liver microsomes; assay type: ADME, Microsome
[2] = target: T1, Peroxisome proliferator-activated receptor gamma (Homo sapiens, UniProt P37231); assay: Activity at human PPAR gamma by cell-based transactivation assay
T1 sequence (P37231 whole entry): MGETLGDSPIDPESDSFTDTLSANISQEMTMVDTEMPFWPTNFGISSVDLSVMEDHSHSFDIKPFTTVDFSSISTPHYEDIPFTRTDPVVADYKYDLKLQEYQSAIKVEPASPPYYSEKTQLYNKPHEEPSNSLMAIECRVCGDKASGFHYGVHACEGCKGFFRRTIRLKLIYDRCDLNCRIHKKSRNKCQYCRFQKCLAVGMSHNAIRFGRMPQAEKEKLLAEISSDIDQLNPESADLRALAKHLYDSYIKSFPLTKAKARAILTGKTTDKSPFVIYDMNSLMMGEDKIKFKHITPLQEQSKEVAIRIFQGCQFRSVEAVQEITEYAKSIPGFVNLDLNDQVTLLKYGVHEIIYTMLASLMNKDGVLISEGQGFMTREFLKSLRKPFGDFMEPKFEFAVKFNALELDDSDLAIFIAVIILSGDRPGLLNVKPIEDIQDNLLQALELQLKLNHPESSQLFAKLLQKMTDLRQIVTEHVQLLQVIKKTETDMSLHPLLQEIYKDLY

[3] = Stability in mouse liver microsomes; assay type: ADME, Microsome
[4] = target: T2, Peroxisome proliferator-activated receptor delta (Homo sapiens, UniProt Q03181); assay: Activity at human PPAR delta by cell-based transactivation assay
T2 sequence (Q03181 whole entry): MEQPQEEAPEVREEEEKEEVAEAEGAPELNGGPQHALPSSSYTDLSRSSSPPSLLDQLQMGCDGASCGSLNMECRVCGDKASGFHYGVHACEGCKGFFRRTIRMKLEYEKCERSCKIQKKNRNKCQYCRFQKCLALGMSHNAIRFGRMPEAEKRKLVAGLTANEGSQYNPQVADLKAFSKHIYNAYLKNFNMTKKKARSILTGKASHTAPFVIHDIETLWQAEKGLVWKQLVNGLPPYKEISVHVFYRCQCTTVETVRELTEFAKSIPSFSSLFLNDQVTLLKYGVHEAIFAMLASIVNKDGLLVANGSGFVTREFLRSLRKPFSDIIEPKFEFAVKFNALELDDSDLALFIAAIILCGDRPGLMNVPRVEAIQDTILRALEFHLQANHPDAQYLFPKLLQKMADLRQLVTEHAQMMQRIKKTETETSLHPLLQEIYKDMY

Liver microsomes [5] = assay: Stability in human liver microsomes; assay type: ADME, Microsome
[6] = target: T3, Peroxisome proliferator-activated receptor alpha (Homo sapiens, UniProt Q07869); assay: Activity at human PPAR alpha by cell-based transactivation assay
T3 sequence (Q07869 whole entry): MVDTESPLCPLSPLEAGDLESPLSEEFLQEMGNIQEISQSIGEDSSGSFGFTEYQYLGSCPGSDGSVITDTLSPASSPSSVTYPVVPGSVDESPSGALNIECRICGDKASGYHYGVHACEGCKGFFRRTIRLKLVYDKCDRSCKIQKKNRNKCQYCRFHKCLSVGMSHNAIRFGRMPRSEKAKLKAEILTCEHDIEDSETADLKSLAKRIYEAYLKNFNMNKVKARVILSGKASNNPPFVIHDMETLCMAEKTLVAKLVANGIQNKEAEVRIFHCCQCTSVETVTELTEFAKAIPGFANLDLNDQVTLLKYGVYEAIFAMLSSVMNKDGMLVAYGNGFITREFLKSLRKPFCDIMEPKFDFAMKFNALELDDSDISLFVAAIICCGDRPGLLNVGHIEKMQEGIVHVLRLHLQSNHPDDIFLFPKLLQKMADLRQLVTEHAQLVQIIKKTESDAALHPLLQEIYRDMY

[7] = Half life in C57BL/6 mouse at 20 mg/kg, po; assay type: ADME, organism-based; set-up: dose 20 mg/kg, route oral; details: in vivo
[8] = Cmax in C57BL/6 mouse at 20 mg/kg, po; assay type: ADME, organism-based; set-up: dose 20 mg/kg, route oral; details: in vivo
Mus musculus [9] = assay: Regulation of ApoAIV gene expression in C57BL/6 mouse jejunum at 10 mg/kg, po; assay type: functional, organism-based; set-up: dose 10 mg/kg
Mus musculus [10] = assay: Regulation of UCP3 gene expression in C57BL/6 mouse skeletal muscle at 10 mg/kg, po; assay type: functional, organism-based; set-up: dose 10 mg/kg; details: Muscle tissue
Mus musculus [11] = assay: Regulation of PDK4 gene expression in C57BL/6 mouse skeletal muscle at 10 mg/kg, po; assay type: functional, organism-based; set-up: dose 10 mg/kg; details: Muscle tissue

Row | Compound | Stability (Liver microsomes [1]) | EC50 [2] | Stability [3] | EC50 [4] | Stability (Liver microsomes [5]) | EC50 [6] | half-life [7] | Cmax [8] | Activity (Mus musculus [9]) | Activity (Mus musculus [10]) | Activity (Mus musculus [11])
1 | O=C(O)Cc1ccc(OCc2noc(-c3ccccc3)c2C(=O)NCCOc2ccc(Cl)cc2Cl)c(Cl)c1 | Stable | > 10 µM | Stable | > 10 µM | Stable | > 10 µM |  |  |  |  | 
2 | CC(C)c1onc(-c2cccc(CC(=O)O)c2)c1C(=O)NCCOc1ccc(Cl)cc1Cl | Stable | > 10 µM | Stable | 1.07 µM | Stable | > 10 µM |  |  |  |  | 
3 | O=C(O)Cc1cccc(-c2noc(-c3ccco3)c2C(=O)NCCOc2ccc(Cl)cc2Cl)c1 | Stable | > 10 µM | Stable | 0.09 µM | Stable | > 10 µM | < 0.5 h | < 300 nM |  |  | 
4 | O=C(O)Cc1ccc(-c2noc(-c3ccccc3)c2C(=O)NCCOc2ccc(Cl)cc2Cl)c(Cl)c1 | Stable | > 10 µM | Stable |  | Stable | > 10 µM | < 0.5 h | < 300 nM |  |  | 
5 | O=C(O)Cc1cccc(-c2noc(-c3ccccc3Cl)c2C(=O)NCCOc2ccc(Cl)cc2Cl)c1 | Stable | > 10 µM | Stable | 0.06 µM | Stable | > 10 µM | 1.1 h | 5600 nM |  |  | 
6 | O=C(O)CCc1cccc(-c2noc(-c3ccccc3)c2C(=O)NCCOc2ccc(Cl)cc2Cl)c1 | Stable | > 10 µM | Stable | 0.97 µM | Stable | > 10 µM |  |  |  |  | 
7 | O=C(O)c1ccc(-c2noc(-c3ccccc3)c2C(=O)NCCOc2ccc(Cl)cc2Cl)cc1 | Stable | > 10 µM | Stable | > 10 µM | Stable | > 10 µM |  |  |  |  | 
8 | Cc1ccccc1-c1onc(-c2cccc(CC(=O)O)c2)c1C(=O)NCCOc1ccc(Cl)cc1Cl | Stable | > 10 µM | Stable | 0.05 µM | Stable | > 10 µM | 1.5 h | 1900 nM |  |  | 
9 | O=C(O)Cc1ccc(-c2noc(-c3ccccc3)c2C(=O)NCCOc2ccc(Cl)cc2Cl)cc1 | Stable | > 10 µM | Stable | 0.72 µM | Stable | > 10 µM |  |  |  |  | 
10 | Cc1cc(-c2noc(-c3ccccc3)c2C(=O)NCCOc2ccc(Cl)cc2Cl)ccc1OCC(=O)O | Stable | > 10 µM | Stable | 0.2 µM | Stable | > 10 µM | < 0.5 h | < 300 nM |  |  | 
11 | COc1ccc(CC(=O)O)cc1-c1noc(-c2ccccc2)c1C(=O)NCCOc1ccc(Cl)cc1Cl | Stable | > 10 µM | Stable | 0.56 µM | Stable | > 10 µM |  |  |  |  | 
12 | O=C(O)Cc1cccc(-c2noc(-c3ccccc3)c2C(=O)NCCOc2ccc(Cl)cc2Cl)c1 | Stable | > 10 µM | Stable | 0.07 µM | Stable | > 10 µM | 3.1 h | 5100 nM | Active | Active | Active
